From paper PMC5218480 (PLoS ONE, 2017)

System: MV-4-11 cells
Assay: Gene expression microarray analysis (Affymetrix PrimeView) and GSEA
Format: cell-based, human
Design: RFU PODN (11730768_x_at) / Fold change /veh PODN (11730768_x_at) / RFU LINC00158 (11744669_a_at) / Fold change /veh LINC00158 (11744669_a_at) / RFU DUSP10 (11751237_a_at) / Fold change /veh DUSP10 (11751237_a_at) / RFU ID3 (11757404_x_at) / Fold change /veh ID3 (11757404_x_at) / RFU PLEKHG5 (11737974_s_at) / Fold change /veh PLEKHG5 (11737974_s_at) / RFU LRRC4B (11730491_at) / Fold change /veh LRRC4B (11730491_at) / RFU GIMAP4 (11747438_a_at) / Fold change /veh GIMAP4 (11747438_a_at) / RFU KRT8 (11758183_x_at) / Fold change /veh KRT8 (11758183_x_at) / RFU CNN1 (11734310_a_at) / Fold change /veh CNN1 (11734310_a_at) / RFU VPS37D (11726825_at) / Fold change /veh VPS37D (11726825_at) / RFU C10orf10 (11716522_x_at) / Fold change /veh C10orf10 (11716522_x_at) / RFU KIR2DL2 /// KIR2DL4 /// KIR2DL5A /// KIR2DL5B /// KIR2DS1 /// KIR2DS2 /// KIR2DS3 /// KIR2DS4 /// KIR3DL3 /// KIR3DL3 /// KIR3DS1 (11738374_at) / Fold change /veh KIR2DL2 /// KIR2DL4 /// KIR2DL5A /// KIR2DL5B /// KIR2DS1 /// KIR2DS2 /// KIR2DS3 /// KIR2DS4 /// KIR3DL3 /// KIR3DL3 /// KIR3DS1 (11738374_at) / RFU C1QL1 (11718748_at) / Fold change /veh C1QL1 (11718748_at) / RFU TMPRSS4 (11747572_a_at) / Fold change /veh TMPRSS4 (11747572_a_at) / RFU HAMP (11756126_x_at) / Fold change /veh HAMP (11756126_x_at) / RFU RNFT2 (11725882_a_at) / Fold change /veh RNFT2 (11725882_a_at) / RFU NR4A2 (11747474_a_at) / Fold change /veh NR4A2 (11747474_a_at) / RFU ABCC12 (11746883_a_at) / Fold change /veh ABCC12 (11746883_a_at) / RFU TMEM136 (11760407_x_at) / Fold change /veh TMEM136 (11760407_x_at) / RFU CLDN22 /// WWC2 (11732394_at) / Fold change /veh CLDN22 /// WWC2 (11732394_at) / RFU HLA-DPB1 (11760878_x_at) / Fold change /veh HLA-DPB1 (11760878_x_at) / RFU SPINT1 (11716480_a_at) / Fold change /veh SPINT1 (11716480_a_at) / RFU GAP43 (11754022_s_at) / Fold change /veh GAP43 (11754022_s_at) / RFU A4GNT (11735810_at) / Fold change /veh A4GNT (11735810_at) / RFU PRB3 (11715151_x_at) / Fold change /veh PRB3 (11715151_x_at) / RFU TUBB4B (11761932_at) / Fold change /veh TUBB4B (11761932_at) / RFU CAPN14 (11732068_a_at) / Fold change /veh CAPN14 (11732068_a_at) / RFU TMCC2 (11721928_a_at) / Fold change /veh TMCC2 (11721928_a_at) / RFU IRGQ (11745062_a_at) / Fold change /veh IRGQ (11745062_a_at) / RFU FAM174B (11720279_a_at) / Fold change /veh FAM174B (11720279_a_at) / RFU TMPRSS4 (11748680_a_at) / Fold change /veh TMPRSS4 (11748680_a_at) / RFU FAM212B (11763350_a_at) / Fold change /veh FAM212B (11763350_a_at) / RFU PLEKHG5 (11743358_a_at) / Fold change /veh PLEKHG5 (11743358_a_at) / RFU ZSCAN30 (11745921_a_at) / Fold change /veh ZSCAN30 (11745921_a_at) / RFU CMKLR1 (11741424_a_at) / Fold change /veh CMKLR1 (11741424_a_at) / RFU LOC101060620 /// MAPK8IP1 (11723275_at) / Fold change /veh LOC101060620 /// MAPK8IP1 (11723275_at) / RFU SPTSSB (11747773_x_at) / Fold change /veh SPTSSB (11747773_x_at) / RFU PRSS12 (11739890_at) / Fold change /veh PRSS12 (11739890_at) / RFU BIN1 (11741810_x_at) / Fold change /veh BIN1 (11741810_x_at) / RFU WNT11 (11732464_a_at) / Fold change /veh WNT11 (11732464_a_at) / RFU C10orf10 (11716521_a_at) / Fold change /veh C10orf10 (11716521_a_at) / RFU C5orf56 (11738089_at) / Fold change /veh C5orf56 (11738089_at) / RFU CYB561 (11721691_x_at) / Fold change /veh CYB561 (11721691_x_at) / RFU ANKRD19P (11752326_a_at) / Fold change /veh ANKRD19P (11752326_a_at) / RFU OR2T12 /// OR2T33 /// OR2T8 (11738714_s_at) / Fold change /veh OR2T12 /// OR2T33 /// OR2T8 (11738714_s_at) / RFU VCAN (11748164_a_at) / Fold change /veh VCAN (11748164_a_at) / RFU JSRP1 (11732532_at) / Fold change /veh JSRP1 (11732532_at) / RFU KRTAP10-11 (11738290_x_at) / Fold change /veh KRTAP10-11 (11738290_x_at) / RFU MYO3A (11730013_a_at) / Fold change /veh MYO3A (11730013_a_at) / RFU EBF3 (11725865_a_at) / Fold change /veh EBF3 (11725865_a_at) / RFU CAMK2N1 (11719241_x_at) / Fold change /veh CAMK2N1 (11719241_x_at) / RFU C5orf56 (11738088_a_at) / Fold change /veh C5orf56 (11738088_a_at) / RFU OLFML3 (11715873_a_at) / Fold change /veh OLFML3 (11715873_a_at) / RFU LOC100653217 /// NTM (11731650_a_at) / Fold change /veh LOC100653217 /// NTM (11731650_a_at) / RFU MAPK11 (11762145_a_at) / Fold change /veh MAPK11 (11762145_a_at) / RFU FIZ1 (11724087_x_at) / Fold change /veh FIZ1 (11724087_x_at) / RFU OASL (11726364_x_at) / Fold change /veh OASL (11726364_x_at) / RFU SOX15 (11748057_x_at) / Fold change /veh SOX15 (11748057_x_at) / RFU CD79A (11719716_a_at) / Fold change /veh CD79A (11719716_a_at) / RFU HIST1H1D (11736915_at) / Fold change /veh HIST1H1D (11736915_at) / RFU CASKIN2 (11723855_a_at) / Fold change /veh CASKIN2 (11723855_a_at) / RFU LOC730098 (11760151_x_at) / Fold change /veh LOC730098 (11760151_x_at) / RFU OR4N2 (11742367_at) / Fold change /veh OR4N2 (11742367_at) / RFU PRRT2 (11749266_a_at) / Fold change /veh PRRT2 (11749266_a_at) / RFU SNX32 (11753110_a_at) / Fold change /veh SNX32 (11753110_a_at) / RFU CDHR5 (11726645_a_at) / Fold change /veh CDHR5 (11726645_a_at) / RFU RCAN1 (11760418_a_at) / Fold change /veh RCAN1 (11760418_a_at) / RFU FAM167A (11723789_a_at) / Fold change /veh FAM167A (11723789_a_at) / RFU FAM26E (11764081_at) / Fold change /veh FAM26E (11764081_at) / RFU ISYNA1 (11749810_s_at) / Fold change /veh ISYNA1 (11749810_s_at) / RFU ACY1 (11761880_at) / Fold change /veh ACY1 (11761880_at) / RFU 11764098_at / Fold change /veh 11764098_at / RFU SAMD14 (11745864_x_at) / Fold change /veh SAMD14 (11745864_x_at) / RFU NPB (11741838_a_at) / Fold change /veh NPB (11741838_a_at) / RFU TMPRSS6 (11731388_a_at) / Fold change /veh TMPRSS6 (11731388_a_at) / RFU KRTAP10-2 (11738614_at) / Fold change /veh KRTAP10-2 (11738614_at) / RFU ARHGAP8 /// PRR5-ARHGAP8 (11727945_x_at) / Fold change /veh ARHGAP8 /// PRR5-ARHGAP8 (11727945_x_at) / RFU KRTAP5-7 /// NADSYN1 (11734609_at) / Fold change /veh KRTAP5-7 /// NADSYN1 (11734609_at) / RFU RASL12 (11751679_a_at) / Fold change /veh RASL12 (11751679_a_at) / RFU CDKN2B (11736163_a_at) / Fold change /veh CDKN2B (11736163_a_at) / RFU PRF1 (11729649_at) / Fold change /veh PRF1 (11729649_at) / RFU, ZNF638 /// ZNF638-IT1 / Fold change vs veh, ZNF638 /// ZNF638-IT1 / RFU, PANK3 / Fold change vs veh, PANK3 / RFU, SH3YL1 / Fold change vs veh, SH3YL1 / RFU, ZEB2 / Fold change vs veh, ZEB2 / RFU, NRIP1 / Fold change vs veh, NRIP1 / RFU, PTTG1IP / Fold change vs veh, PTTG1IP / RFU, CAPN2 / Fold change vs veh, CAPN2 / RFU, MED14 / Fold change vs veh, MED14 / RFU, SNORA58 / Fold change vs veh, SNORA58 / RFU, C1orf63 / Fold change vs veh, C1orf63 / RFU, LRRFIP1 / Fold change vs veh, LRRFIP1 / RFU, NDUFAF7 / Fold change vs veh, NDUFAF7 / RFU, SLC12A2 / Fold change vs veh, SLC12A2 / RFU, IBTK / Fold change vs veh, IBTK / RFU, ESF1 / Fold change vs veh, ESF1 / Fold change vs veh, TMEM50B / RFU, TAOK1 / Fold change vs veh, TAOK1 / RFU, ACBD3 / Fold change vs veh, ACBD3 / RFU, TMA16 / Fold change vs veh, TMA16 / RFU, RWDD3 / Fold change vs veh, RWDD3 / RFU, BCAT1 / Fold change vs veh, BCAT1 / RFU, EDEM3 / Fold change vs veh, EDEM3 / RFU, TMEM33 / Fold change vs veh, TMEM33 / RFU, WDR75 / Fold change vs veh, WDR75 / RFU, AHCTF1 / Fold change vs veh, AHCTF1 / RFU, TFRC / Fold change vs veh, TFRC / RFU, ZDHHC17 / Fold change vs veh, ZDHHC17 / RFU, NOM1 / Fold change vs veh, NOM1 / RFU, ARL8B / Fold change vs veh, ARL8B / RFU, ZBTB11 / Fold change vs veh, ZBTB11 / RFU, TAMM41 / Fold change vs veh, TAMM41 / RFU, KIAA1704 /// LOC100996395 / Fold change vs veh, KIAA1704 /// LOC100996395 / RFU, ING1 / Fold change vs veh, ING1 / RFU, TRMT61B / Fold change vs veh, TRMT61B / RFU, FUBP3 / Fold change vs veh, FUBP3 / RFU, TP53 / Fold change vs veh, TP53 / RFU, TNKS2 / Fold change vs veh, TNKS2 / RFU, ZFP14 / Fold change vs veh, ZFP14 / RFU, ACTR2 / Fold change vs veh, ACTR2 / RFU, PPP3R1 / Fold change vs veh, PPP3R1 / RFU, PIK3R1 / Fold change vs veh, PIK3R1 / RFU, HNRNPA1 / Fold change vs veh, HNRNPA1 / RFU, RNF170 / Fold change vs veh, RNF170 / RFU, ZNF28 / Fold change vs veh, ZNF28 / RFU, RNGTT / Fold change vs veh, RNGTT / RFU, OGT / Fold change vs veh, OGT / RFU, BRD1 / Fold change vs veh, BRD1 / RFU, MARS / Fold change vs veh, MARS / RFU, ZNF655 / Fold change vs veh, ZNF655 / RFU, FAHD1 / Fold change vs veh, FAHD1 / RFU, BDP1 / Fold change vs veh, BDP1 / RFU, LRRCC1 / Fold change vs veh, LRRCC1 / RFU, ARID1A / Fold change vs veh, ARID1A / RFU, ZNF146 / Fold change vs veh, ZNF146 / RFU, ZNF330 / Fold change vs veh, ZNF330 / RFU, GPN3 / Fold change vs veh, GPN3 / RFU, C9orf123 / Fold change vs veh, C9orf123 / RFU, N4BP2L2 / Fold change vs veh, N4BP2L2 / RFU, ARFIP1 / Fold change vs veh, ARFIP1 / RFU, FAM179B / Fold change vs veh, FAM179B / RFU, BCL10 / Fold change vs veh, BCL10 / RFU, UHRF1BP1L / Fold change vs veh, UHRF1BP1L / RFU, BET1 / Fold change vs veh, BET1 / RFU, CNOT2 / Fold change vs veh, CNOT2 / RFU, ZNF268 / Fold change vs veh, ZNF268 / Fold change vs veh, ZNF507 / RFU, DGCR2 / Fold change vs veh, DGCR2 / RFU, WDSUB1 / Fold change vs veh, WDSUB1 / Fold change vs veh, HSP90B1 /// MIR3652 / RFU, ADSS / Fold change vs veh, ADSS / RFU, GK / Fold change vs veh, GK / RFU, ZNF148 / Fold change vs veh, ZNF148 / RFU, TAF9 / Fold change vs veh, TAF9 / RFU, SLC1A5 / Fold change vs veh, SLC1A5 / RFU, SLMO2 / Fold change vs veh, SLMO2 / RFU, ABCC4 / Fold change vs veh, ABCC4 / RFU, LOC101060439 /// RAP1B / Fold change vs veh, LOC101060439 /// RAP1B / RFU, RFX7 / Fold change vs veh, RFX7 / RFU, GTPBP10 / Fold change vs veh, GTPBP10 / RFU, CNEP1R1 / Fold change vs veh, CNEP1R1 / RFU, BIVM-ERCC5 /// ERCC5 / Fold change vs veh, BIVM-ERCC5 /// ERCC5 / RFU, ILF3 / Fold change vs veh, ILF3 / RFU 11762660_at / Fold change /veh 11762660_at / RFU VCAN (11757783_s_at) / Fold change /veh VCAN (11757783_s_at) / RFU DDX43 (11728927_at) / Fold change /veh DDX43 (11728927_at) / RFU KRT8 (11758188_x_at) / Fold change /veh KRT8 (11758188_x_at) / RFU NKD1 (11759106_at) / Fold change /veh NKD1 (11759106_at) / RFU SRD5A1 (11742802_a_at) / Fold change /veh SRD5A1 (11742802_a_at) / RFU TPSAB1 /// TPSB2 (11721975_s_at) / Fold change /veh TPSAB1 /// TPSB2 (11721975_s_at) / RFU GSTM3 (11746129_a_at) / Fold change /veh GSTM3 (11746129_a_at) / RFU IL23R (11737362_x_at) / Fold change /veh IL23R (11737362_x_at) / RFU TMEM51 (11727254_a_at) / Fold change /veh TMEM51 (11727254_a_at) / RFU PIWIL2 (11732686_x_at) / Fold change /veh PIWIL2 (11732686_x_at) / RFU ORM1 (11744905_x_at) / Fold change /veh ORM1 (11744905_x_at) / RFU CCDC152 (11743942_at) / Fold change /veh CCDC152 (11743942_at) / RFU ECM1 (11717891_a_at) / Fold change /veh ECM1 (11717891_a_at) / RFU IL23R (11748794_a_at) / Fold change /veh IL23R (11748794_a_at) / RFU TNFAIP8L3 (11732012_x_at) / Fold change /veh TNFAIP8L3 (11732012_x_at) / RFU MBOAT4 (11741988_at) / Fold change /veh MBOAT4 (11741988_at) / RFU 11764193_at / Fold change /veh 11764193_at / RFU TMEM53 (11763286_at) / Fold change /veh TMEM53 (11763286_at) / RFU MAGEB2 (11727129_at) / Fold change /veh MAGEB2 (11727129_at) / RFU TMEM200A (11744735_a_at) / Fold change /veh TMEM200A (11744735_a_at) / RFU CCDC152 (11751479_a_at) / Fold change /veh CCDC152 (11751479_a_at) / RFU FAM211A (11726209_a_at) / Fold change /veh FAM211A (11726209_a_at) / RFU RGS16 (11746705_a_at) / Fold change /veh RGS16 (11746705_a_at) / RFU VCAN (11755009_s_at) / Fold change /veh VCAN (11755009_s_at) / RFU RHOB (11743442_s_at) / Fold change /veh RHOB (11743442_s_at) / RFU RGS16 (11720943_a_at) / Fold change /veh RGS16 (11720943_a_at) / RFU RGS16 (11720944_at) / Fold change /veh RGS16 (11720944_at) / RFU, VPS4B / Fold change vs veh, VPS4B / RFU, CREB1 / Fold change vs veh, CREB1 / RFU, DNAJC13 / Fold change vs veh, DNAJC13 / RFU, GNAQ / Fold change vs veh, GNAQ / RFU, CDK5R1 / Fold change vs veh, CDK5R1 / RFU, ZRANB3 / Fold change vs veh, ZRANB3 / RFU, CUL4A / Fold change vs veh, CUL4A / RFU, CCNY / Fold change vs veh, CCNY / RFU, UFL1 / Fold change vs veh, UFL1 / RFU, COG3 / Fold change vs veh, COG3 / RFU, DIAPH2 / Fold change vs veh, DIAPH2 / RFU, SKA2 / Fold change vs veh, SKA2 / RFU, AFF3 / Fold change vs veh, AFF3 / RFU, LMF1 / Fold change vs veh, LMF1 / RFU, IPO11 / Fold change vs veh, IPO11 / RFU, DFFB / Fold change vs veh, DFFB / RFU, FOXP1 / Fold change vs veh, FOXP1 / RFU, CARD8 / Fold change vs veh, CARD8 / RFU, STRN3 / Fold change vs veh, STRN3 / RFU, ADK / Fold change vs veh, ADK / RFU, RASSF2 / Fold change vs veh, RASSF2 / RFU, WIPF1 / Fold change vs veh, WIPF1 / RFU, LARP1B / Fold change vs veh, LARP1B / RFU, RASA1 / Fold change vs veh, RASA1 / RFU, RB1 / Fold change vs veh, RB1 / RFU, PPFIA1 / Fold change vs veh, PPFIA1 / RFU, MAT2A / Fold change vs veh, MAT2A / RFU, CCT5 / Fold change vs veh, CCT5 / RFU, WDR92 / Fold change vs veh, WDR92 / RFU, CUX1 / Fold change vs veh, CUX1 / RFU, TTC7A / Fold change vs veh, TTC7A / RFU, TMEM135 / Fold change vs veh, TMEM135 / RFU, DEPTOR / Fold change vs veh, DEPTOR / RFU, CPM / Fold change vs veh, CPM / RFU, DNAJB6 / Fold change vs veh, DNAJB6 / RFU, CACNA2D3 / Fold change vs veh, CACNA2D3 / RFU, DTX4 / Fold change vs veh, DTX4 / RFU, TFCP2 / Fold change vs veh, TFCP2 / RFU, GMCL1 /// GMCL1P1 / Fold change vs veh, GMCL1 /// GMCL1P1 / RFU, AEBP2 / Fold change vs veh, AEBP2 / RFU, SNHG1 /// SNORD22 /// SNORD25 /// SNORD26 /// SNORD27 /// SNORD28 /// SNORD29 /// SNORD31 / Fold change vs veh, SNHG1 /// SNORD22 /// SNORD25 /// SNORD26 /// SNORD27 /// SNORD28 /// SNORD29 /// SNORD31 / Fold change (Aza/veh), C12orf56 (ProbeSet 11735607_a_at) / Fold change (ACY-1035/veh), C12orf56 (ProbeSet 11735607_a_at) / Fold change (Aza/veh), FGFR1OP (ProbeSet 11751329_s_at) / Fold change (ACY-1035/veh), FGFR1OP (ProbeSet 11751329_s_at) / Fold change (Aza/veh), VPS36 (ProbeSet 11739960_a_at) / Fold change (ACY-1035/veh), VPS36 (ProbeSet 11739960_a_at) / RFU SYPL1 (11715823_x_at) / Fold change /veh SYPL1 (11715823_x_at) / RFU IGFBP7 (11715501_s_at) / Fold change /veh IGFBP7 (11715501_s_at) / RFU REEP3 (11722064_at) / Fold change /veh REEP3 (11722064_at) / RFU IGLL1 (11728026_x_at) / Fold change /veh IGLL1 (11728026_x_at): dose or concentration left out as unconfirmed
Conditions: ProbeSet 11727641_at; LIST B

SMILES: Nc1ccc(-c2cccs2)cc1NC(=O)c1ccc2c(c1)cc(C1CC1)n2CCN1CCOCC1 [ACY-1035]
- Fold change vs veh, NOM1: 0.95
